Assay results published in DBAASP.
In brackets after ≈: the same amount, converted by molar mass. Values belong to the molecule of their own block, whether it stands above or below them.

Key:
Test in all cases: ≥ marks a high value that may be exact or a test limit, other limits are often not marked, values filed in µg/mL are converted to µM
[1] = test system: Escherichia coli ATCC 25726
[2] = test system: Staphylococcus aureus ATCC 25923
Bacillus subtilis 168 = test system: Bacillus subtilis 168
[3] = test system: Candida albicans F7-39/IDE99
Escherichia coli B = test system: Escherichia coli B
Pseudomonas aeruginosa = test system: Pseudomonas aeruginosa
Staphylococcus aureus = test system: Staphylococcus aureus
Streptococcus mutans = test system: Streptococcus mutans
[4] = test system: Enterococcus faecalis ATCC 29212
Leuconostoc lactis = test system: Leuconostoc lactis
[5] = test system: Escherichia coli K12 MG1655
Bacillus cereus = test system: Bacillus cereus
[6] = test system: Candida albicans ATCC 2002
[7] = test system: Escherichia coli ATCC 25922
Shigella dysenteriae = test system: Shigella dysenteriae
[8] = test system: Staphylococcus aureus ATCC 2592

MIC (Bacillus subtilis 168): 2 µM (≈ 2.81 µg/mL) | MIC [3]: 7.4 µM (≈ 10.4 µg/mL) | MIC (Escherichia coli B): 3.7 µM (≈ 5.2 µg/mL) | MIC (Pseudomonas aeruginosa): 71.7 µM (≈ 101 µg/mL) | MIC (Staphylococcus aureus): 23.3 µM (≈ 32.8 µg/mL)
Compound: CC[C@H](C)[C@H](NC(=O)[C@H](CC(C)C)NC(=O)[C@H](Cc1cnc[nH]1)NC(=O)CNC(=O)[C@H](CC(C)C)NC(=O)[C@@H](NC(=O)[C@H](CCCCN)NC(=O)[C@H](CO)NC(=O)[C@H](Cc1c[nH]c2ccccc12)NC(=O)[C@H](CCCCN)NC(=O)CN)[C@@H](C)CC)C(=O)N[C@@H](CCCN=C(N)N)C(N)=O [GKWSKILGHLIR]

MIC (Bacillus subtilis 168): 1.5 µM (≈ 2.21 µg/mL) | MIC [3]: 10 µM (≈ 14.7 µg/mL) | MIC (Escherichia coli B): 3.8 µM (≈ 5.6 µg/mL) | MIC (Pseudomonas aeruginosa): 50 µM (≈ 73.6 µg/mL) | MIC (Staphylococcus aureus): 2.3 µM (≈ 3.39 µg/mL)
Compound: CSCC[C@H](NC(=O)CNC(=O)[C@H](Cc1ccccc1)NC(=O)[C@@H](N)CC(C)C)C(=O)N[C@@H](C)C(=O)N[C@@H](CC(C)C)C(=O)N[C@@H](CCCCN)C(=O)N[C@@H](CC(C)C)C(=O)N[C@@H](CC(C)C)C(=O)N[C@@H](CCCCN)C(=O)N[C@@H](CCCCN)C(=O)N[C@H](C(=O)N[C@@H](CC(C)C)C(N)=O)C(C)C [LFGMALKLLKKVL]

MIC [4]: 100 µM (≈ 165 µg/mL) | MIC (Leuconostoc lactis): ≥ 100 µM
Compound: CC[C@H](C)[C@H](NC(=O)CNC(=O)[C@@H](NC(=O)[C@@H](NC(=O)[C@H](Cc1cnc[nH]1)NC(=O)[C@H](CCCCN)NC(=O)[C@H](C)NC(=O)[C@H](CC(C)C)NC(=O)[C@H](CC(=O)O)NC(=O)[C@H](CC(C)C)NC(=O)[C@H](CC(C)C)NC(=O)CN)C(C)C)[C@@H](C)CC)C(=O)N[C@@H](C)C(=O)N[C@@H](CO)C(=O)N[C@@H](CCCCN)C(=O)N[C@@H](CC(C)C)C(N)=O [GLLDLAKHVIGIASKL]

MIC [5]: ≥ 71.1 µM
Compound: CC[C@H](C)[C@H](NC(=O)[C@H](C)N)C(=O)N[C@@H](C)C(=O)N[C@@H](CCCN=C(N)N)C(=O)N[C@H](C(=O)N[C@@H](CCCN=C(N)N)C(=O)N[C@@H](CCCN=C(N)N)C(=O)N[C@@H](CCCN=C(N)N)C(=O)N[C@@H](CC(C)C)C(=O)N[C@@H](CC(C)C)C(=O)N[C@@H](CC(C)C)C(=O)N[C@@H](Cc1ccc(O)cc1)C(=O)N[C@@H](CC(C)C)C(=O)N[C@@H](CC(C)C)C(=O)N[C@@H](C)C(=O)O)[C@@H](C)O [AIARTRRRLLLYLLA]

The remaining lines, values behind:

Compound: CC[C@H](C)[C@H](N)C(=O)N[C@H](C(=O)N[C@H](C(=O)N1CCC[C@H]1C(=O)N1CCC[C@H]1C(=O)N[C@H](C(=O)N[C@H](C(=O)N[C@@H](CCCCN)C(=O)N[C@@H](CC(=O)O)C(=O)N[C@H](C(=O)N[C@@H](CC(C)C)C(=O)N[C@@H](CCCCN)C(=O)N[C@@H](CCCCN)C(=O)N[C@@H](Cc1ccccc1)C(=O)N[C@H](C(=O)N[C@@H](CCCCN)C(=O)NCC(=O)N[C@@H](C)C(=O)N[C@H](C(=O)N[C@@H](CO)C(=O)N[C@@H](CO)C(=O)N[C@H](C(=O)N[C@@H](CCSC)C(N)=O)C(C)C)[C@@H](C)CC)[C@@H](C)CC)[C@@H](C)O)C(C)C)[C@@H](C)CC)[C@@H](C)CC)[C@@H](C)O [ITIPPIVKDTLKKFIKGAISSVM]
MIC [1]: ≥ 40 µM | MIC [2]: 20 µM (≈ 50 µg/mL)

Compound: NC(=O)[C@H](Cc1ccccc1)NC(=O)[C@H](Cc1c[nH]c2ccccc12)NC(=O)[C@H](Cc1c[nH]c2ccccc12)NC(=O)[C@H](Cc1c[nH]c2ccccc12)NC(=O)[C@H](CCCN=C(N)N)NC(=O)[C@H](CCCN=C(N)N)NC(=O)[C@H](CCCN=C(N)N)NC(=O)[C@H](Cc1ccccc1)NC(=O)[C@H](Cc1c[nH]c2ccccc12)NC(=O)[C@H](Cc1c[nH]c2ccccc12)NC(=O)[C@H](Cc1c[nH]c2ccccc12)NC(=O)[C@H](CCCN=C(N)N)NC(=O)[C@H](CCCN=C(N)N)NC(=O)[C@@H](N)CCCN=C(N)N [RRRWWWFRRRWWWF]
MIC (Streptococcus mutans): 6.76 µM (≈ 16 µg/mL)

Compound: CC[C@H](C)[C@H](N)C(=O)N[C@H](C(=O)N[C@H](C(=O)N1CCC[C@H]1C(=O)N1CCC[C@H]1C(=O)N[C@H](C(=O)N[C@H](C(=O)N[C@@H](CCCCN)C(=O)N[C@@H](CC(N)=O)C(=O)N[C@H](C(=O)N[C@@H](CC(C)C)C(=O)N[C@@H](CCCCN)C(=O)N[C@@H](CCCCN)C(=O)N[C@@H](Cc1ccccc1)C(=O)N[C@H](C(=O)N[C@@H](CCCCN)C(=O)NCC(=O)N[C@@H](C)C(=O)N[C@H](C(=O)N[C@@H](CO)C(=O)N[C@@H](C)C(=O)N[C@@H](CC(C)C)C(=O)N[C@@H](CCSC)C(=O)N[C@@H](CO)C(=O)O)C(C)C)[C@@H](C)CC)[C@@H](C)O)C(C)C)[C@@H](C)CC)[C@@H](C)CC)[C@@H](C)O [ITIPPIVKNTLKKFIKGAVSALMS]
MIC [1]: ≥ 40 µM | MIC [2]: 10 µM (≈ 25.7 µg/mL)

Compound: CC(C)C[C@H](NC(=O)[C@H](C)NC(=O)[C@@H](N)CC(N)=O)C(=O)N[C@@H](CO)C(=O)N[C@@H](CO)C(=O)N1CCC[C@H]1C(=O)N[C@@H](CCCN=C(N)N)C(=O)N[C@@H](CC(N)=O)C(=O)N[C@@H](CCCCN)C(=O)N[C@H]1CSSC[C@@H](C(=O)N[C@@H](Cc2ccccc2)C(=O)NCC(=O)O)NC(=O)[C@H](CO)NC(=O)[C@H](CO)NC(=O)[C@H](C)NC(=O)[C@H](CCCN=C(N)N)NC(=O)[C@H](CC(=O)O)NC1=O [NALSSPRNKCDRASSCFG]
MIC (Bacillus cereus): 6.53 µM (≈ 12.5 µg/mL) | MIC [6]: 3.27 µM (≈ 6.24 µg/mL) | MIC [7]: 26.1 µM (≈ 49.9 µg/mL) | MIC (Pseudomonas aeruginosa): 3.27 µM (≈ 6.25 µg/mL) | MIC (Shigella dysenteriae): 1.62 µM (≈ 3.1 µg/mL) | MIC [8]: 3.27 µM (≈ 6.24 µg/mL)

Compound: CSCC[C@@H]1NC(=O)[C@H](C(C)C)NC(=O)[C@H](C)NC(=O)[C@H](CCCN=C(N)N)NC(=O)[C@H](Cc2ccccc2)NC(=O)CNC(=O)CNC(=O)[C@H](CCCCN)NC(=O)[C@@H](NC(=O)[C@H](CCCN=C(N)N)NC(=O)[C@@H]2CCCN2C(=O)[C@H](CCSC)NC(=O)[C@H](CO)NC(=O)[C@H](Cc2ccc(O)cc2)NC(=O)[C@H](C)NC(=O)[C@@H](N)CCCCN)CSSC[C@@H](C(=O)N[C@@H](Cc2c[nH]c3ccccc23)C(=O)N[C@@H](CC(C)C)C(N)=O)NC1=O [KAYSMPRCKGGFRAVMCWL]
MIC (Bacillus cereus): 22.7 µM (≈ 49.9 µg/mL) | MIC [6]: 22.7 µM (≈ 49.9 µg/mL) | MIC [7]: 5.67 µM (≈ 12.5 µg/mL) | MIC (Pseudomonas aeruginosa): 22.7 µM (≈ 49.9 µg/mL) | MIC (Shigella dysenteriae): 5.67 µM (≈ 12.5 µg/mL) | MIC [8]: 11.3 µM (≈ 25 µg/mL)

Compound: C[C@H](N)C(=O)N[C@@H](CCC(N)=O)C(=O)N[C@@H](C)C(=O)N[C@@H](C)C(=O)N[C@@H](Cc1cnc[nH]1)C(=O)N[C@@H](CCC(N)=O)C(=O)N[C@@H](C)C(=O)N[C@@H](C)C(=O)N[C@@H](Cc1cnc[nH]1)C(=O)N[C@@H](C)C(=O)N[C@@H](C)C(=O)N[C@@H](Cc1cnc[nH]1)C(=O)N[C@@H](CCC(N)=O)C(=O)N[C@@H](Cc1ccccc1)C(N)=O [AQAAHQAAHAAHQF]
MIC (Streptococcus mutans): ≥ 85.7 µM

Compound: CC(C)C[C@H](NC(=O)[C@H](Cc1cnc[nH]1)NC(=O)[C@H](CCCCN)NC(=O)[C@H](Cc1ccccc1)NC(=O)[C@H](CCCN=C(N)N)NC(=O)[C@H](CCCCN)NC(=O)[C@H](CC(C)C)NC(=O)[C@H](CC(C)C)NC(=O)[C@@H](N)CCCN=C(N)N)C(=O)N[C@@H](Cc1ccccc1)C(=O)N[C@@H](CCCCN)C(=O)O [RLLKRFKHLFK]
MIC (Streptococcus mutans): ≥ 42.1 µM

Compound: NC(=O)[C@H](Cc1ccccc1)NC(=O)[C@H](Cc1c[nH]c2ccccc12)NC(=O)[C@H](Cc1c[nH]c2ccccc12)NC(=O)[C@H](Cc1c[nH]c2ccccc12)NC(=O)[C@H](CCCN=C(N)N)NC(=O)[C@H](CCCN=C(N)N)NC(=O)[C@H](CCCN=C(N)N)NC(=O)[C@@H]1CCCN1C(=O)[C@H](CO)NC(=O)CNC(=O)[C@H](CO)NC(=O)[C@@H]1CCCN1C(=O)[C@H](Cc1ccccc1)NC(=O)[C@H](Cc1c[nH]c2ccccc12)NC(=O)[C@H](Cc1c[nH]c2ccccc12)NC(=O)[C@H](Cc1c[nH]c2ccccc12)NC(=O)[C@H](CCCN=C(N)N)NC(=O)[C@H](CCCN=C(N)N)NC(=O)[C@@H](N)CCCN=C(N)N [RRRWWWFPSGSPRRRWWWF]
MIC (Streptococcus mutans): 11.5 µM (≈ 32 µg/mL)

Compound: NC(N)=NCCC[C@H](NC(=O)[C@H](Cc1c[nH]c2ccccc12)NC(=O)[C@H](CCCN=C(N)N)NC(=O)[C@H](Cc1c[nH]c2ccccc12)NC(=O)[C@H](CCCN=C(N)N)NC(=O)[C@H](Cc1c[nH]c2ccccc12)NC(=O)[C@@H](N)CCCN=C(N)N)C(=O)O [RWRWRWR]
MIC (Streptococcus mutans): 26.6 µM (≈ 32 µg/mL)
